This test has as its system tre^tc318 mutant embryos. Put plainly: Compound rescue screen: restoration of persistent heartbeat in tremblor embryos. The class given is in vivo, Zebrafish. Particulars: for responders at 10 µM / responders at 15 µM / responders at 20 µM: Danio rerio, 48 h; for responders at 10 µM: read-out: Rescue at 10 uM (%); for responders at 15 µM: read-out: Rescue at 15 uM (%); for responders at 20 µM: read-out: Rescue at 20 uM (%); for Rescue at 10 uM (%): 10 uM from 30 hpf; for Rescue at 10 uM (%) / Rescue at 15 uM (%) / Rescue at 20 uM (%): cardiac function by visual inspection at 2 dpf, 10 embryos per well; for Rescue at 15 uM (%): 15 uM from 30 hpf; for Rescue at 20 uM (%): 20 uM from 30 hpf. The procedure:
Zebrafish of the mutant line tremblor (tre^tc318) were maintained and bred as described previously in the literature. C. f. Langenbacher A D, et al., PNAS, 2005, 102(49), 17699-17704.
Exemplary compounds were screened for their ability to partially or completely restore persistent heartbeat in tre^tc318 embryos. 10 tre^tc318 mutant embryos were placed in each well of a 24-well plate and raised in the presence of individual compounds at various concentrations (5, 10, 15 and 20 μM) from 30 hpf. Cardiac function was analyzed by visual inspection at 2 dpf. The hearts of tre^tc318 embryos manifest a chaotic movement resembling cardiac fibrillation with sporadic contractions. Compounds that elicited persistent coordinated cardiac contractions were validated by rescreening at least once on another 10 tre^tc318 mutant embryos.

The structures appear in SMILES notation.

With `CCOC(=O)C1=CCN(S(=O)(=O)c2ccccc2C)C1c1ccc(Cl)cc1` (stereo not drawn) [FS017], the responders at 10 µM amounted to 25%, the responders at 15 µM amounted to 60% and the responders at 20 µM came out at 20%. Turning to `CCOC(=O)C1=CCN(S(=O)(=O)c2ccccc2C)C1c1ccc(C)cc1` (stereo not drawn) [FS018], the responders at 10 µM stood at 0%.

On to `CCOC(=O)C1=CCN(S(=O)(=O)c2ccccc2C)C1c1ccc(Cl)c(Cl)c1` (stereo not drawn) [FS019], for which the responders at 10 µM came to 30%, the responders at 15 µM is 40% and the responders at 20 µM was found to be 30%. Consider `CCOC(=O)C1=CCN(S(=O)(=O)c2ccccc2C)C1c1cccc(Cl)c1` (stereo not drawn) [FS020], for which the responders at 10 µM worked out at 0%.

Consider `CCOC(=O)C1=CCN(S(=O)(=O)c2ccccc2C)C1c1cccc(Br)c1` (stereo not drawn) [FS021], for which the responders at 10 µM came out at 10%.

Turning to `CCOC(=O)C1=CCN(S(=O)(=O)c2ccccc2C)C1c1cccc(F)c1` (stereo not drawn) [FS022], the responders at 10 µM came out at 0%. Same read-out and setting: next, `CCOC(=O)C1=CCN(S(=O)(=O)c2ccccc2Cl)C1c1cccc(Cl)c1` (stereo not drawn) [FS024]: 0%. Same read-out and setting: as for `CCOC(=O)C1=CCN(S(=O)(=O)c2ccccc2C)C1c1cccc(C)c1` (stereo not drawn) [FS025], the figure is 0%. Still for that read-out and setting: next, `CCOC(=O)C1=CCN(S(=O)(=O)c2ccccc2Cl)C1c1cccc(Br)c1` (stereo not drawn) [FS026]: 0%. With `CCOC(=O)C1=CCN(S(=O)(=O)c2ccccc2Cl)C1c1cccc(F)c1` (stereo not drawn) [FS027], the responders at 10 µM was 0%.

`CCOC(=O)C1=CCN(S(=O)(=O)c2ccccc2Cl)C1c1cccc(C)c1` (stereo not drawn) [FS028]: the responders at 10 µM amounted to 0%. Consider `CCOC(=O)C1=CCN(S(=O)(=O)c2ccccc2Br)C1c1ccc(Cl)c(Cl)c1` (stereo not drawn) [FS029], for which the responders at 10 µM was determined as 70%, the responders at 15 µM came to 10% and the responders at 20 µM amounted to 10%.

As for `CCOC(=O)C1=CCN(S(=O)(=O)c2ccccc2Br)C1c1cccc(Cl)c1` (stereo not drawn) [FS030], the responders at 10 µM stood at 0%. The same measure, in the same setting: next, `CCOC(=O)C1=CCN(S(=O)(=O)c2ccccc2Br)C1c1cccc(Br)c1` (stereo not drawn) [FS031]: 0%; `CCOC(=O)C1=CCN(S(=O)(=O)c2ccccc2Br)C1c1cccc(F)c1` (stereo not drawn) [FS032]: 0%. Still for that read-out and setting: as for `CCOC(=O)C1=CCN(S(=O)(=O)c2ccccc2Br)C1c1cccc(C)c1` (stereo not drawn) [FS033], the figure is 0%. For the compound `CCOC(=O)C1=CCN(S(=O)(=O)c2ccccc2F)C1c1ccc(Cl)c(Cl)c1` (stereo not drawn) [FS034], the responders at 10 µM stood at 65%, the responders at 15 µM was 30% and the responders at 20 µM is 20%.

In the case of `CCOC(=O)C1=CCN(S(=O)(=O)c2ccccc2F)C1c1cccc(Cl)c1` (stereo not drawn) [FS035], the responders at 10 µM was found to be 0%. For the compound `CCOC(=O)C1=CCN(S(=O)(=O)c2ccccc2F)C1c1cccc(Br)c1` (stereo not drawn) [FS036], the responders at 10 µM came out at 0%. Regarding `CCOC(=O)C1=CCN(S(=O)(=O)c2ccccc2F)C1c1cccc(F)c1` (stereo not drawn) [FS037], the responders at 10 µM worked out at 0%.

On to `CCOC(=O)C1=CCN(S(=O)(=O)c2ccccc2F)C1c1cccc(C)c1` (stereo not drawn) [FS038], for which the responders at 10 µM stood at 25%. With `CCOC(=O)C1=CCN(S(=O)(=O)c2ccccc2C)C1c1ccc(Br)cc1` (stereo not drawn) [FS039], the responders at 10 µM amounted to 33%.

Consider `CCOC(=O)C1=CCN(S(=O)(=O)c2ccccc2Cl)C1c1ccc(Cl)cc1` (stereo not drawn) [FS041], for which the responders at 10 µM is 44%, the responders at 15 µM was determined as 30% and the responders at 20 µM turned out to be 20%.

For `CCOC(=O)C1=CCN(S(=O)(=O)c2ccccc2Cl)C1c1ccc(Br)cc1` (stereo not drawn) [FS042], the responders at 10 µM came out at 0%. The same measure, in the same setting: next, `CCOC(=O)C1=CCN(S(=O)(=O)c2ccccc2Cl)C1c1ccc(F)cc1` (stereo not drawn) [FS043]: 33%; `CCOC(=O)C1=CCN(S(=O)(=O)c2ccccc2Cl)C1c1ccc(C)cc1` (stereo not drawn) [FS044]: 0%. Turning to `CCOC(=O)C1=CCN(S(=O)(=O)c2ccccc2Br)C1c1ccc(Br)cc1` (stereo not drawn) [FS046], the responders at 10 µM came out at 60%, the responders at 15 µM amounted to 10% and the responders at 20 µM was 10%. In the case of `CCOC(=O)C1=CCN(S(=O)(=O)c2ccccc2Br)C1c1ccc(F)cc1` (stereo not drawn) [FS047], the responders at 10 µM was determined as 20%. The same measure, in the same setting: as for `CCOC(=O)C1=CCN(S(=O)(=O)c2ccccc2Br)C1c1ccc(C)cc1` (stereo not drawn) [FS048], the figure is 0%; as for `CCOC(=O)C1=CCN(S(=O)(=O)c2ccccc2C)C1c1ccccc1` (stereo not drawn) [FS053], 0%. On the same count and under the same terms, next, `CCOC(=O)C1=CCN(S(=O)(=O)c2ccccc2Cl)C1c1ccccc1` (stereo not drawn) [FS054]: 0%; `CCOC(=O)C1=CCN(S(=O)(=O)c2ccccc2Br)C1c1ccccc1` (stereo not drawn) [FS055]: 0%. With `CCOC(=O)C1=CCN(S(=O)(=O)c2ccccc2F)C1c1ccccc1` (stereo not drawn) [FS056], the “Rescue at 10 uM (%)” value was 20%, the “Rescue at 15 uM (%)” value was found to be 0% and the “Rescue at 20 uM (%)” value is given as 0%. Take `CCOC(=O)C1=CCN(S(=O)(=O)c2ccc(C)cc2)C1c1ccc(C)cc1` (stereo not drawn) [FS057]: the “Rescue at 10 uM (%)” value came out at 60%, the “Rescue at 15 uM (%)” value is listed as 70% and the “Rescue at 20 uM (%)” value is on record as 60%. For the compound `CCOC(=O)C1=CCN(S(=O)(=O)c2ccc(C)cc2)C1c1ccc(CC)cc1` (stereo not drawn) [FS058], the responders at 10 µM is 58%, the responders at 15 µM was found to be 80% and the responders at 20 µM came to 45%. `CCOC(=O)C1=CCN(S(=O)(=O)c2ccc(C)cc2)C1c1ccc2c(c1)OCO2` (stereo not drawn) [FS059]: the responders at 10 µM was 20%.

As for `CCOC(=O)C1=CCN(S(=O)(=O)c2ccc(C)cc2)C1c1ccc(C#N)cc1` (stereo not drawn) [FS060], the responders at 10 µM came to 80%, the responders at 15 µM was 60% and the responders at 20 µM amounted to 0%. The matching figures for `CCOC(=O)C1=CCN(S(=O)(=O)c2ccc(C)cc2)C1c1ccc(C(=O)OCC)cc1` (stereo not drawn) [FS061]: 40%, 56% and 40%.

Regarding `CCOC(=O)C1=CCN(S(=O)(=O)c2ccc(C)cc2)C1c1ccccc1F` (stereo not drawn) [FS062], the “Rescue at 10 uM (%)” value is 50%, the “Rescue at 15 uM (%)” value is reported as 90% and the “Rescue at 20 uM (%)” value amounted to 60%.

For the compound `CCOC(=O)C1=CCN(S(=O)(=O)c2ccc(C)cc2)C1c1ccc(Cl)cc1` (stereo not drawn) [FS063], the “Rescue at 10 uM (%)” value came to 40%.

On to `CCOC(=O)C1=CCN(S(=O)(=O)c2ccc(C)cc2)C1c1cccc(Cl)c1` (stereo not drawn) [FS064], for which the “Rescue at 10 uM (%)” value was 20%. For `CCOC(=O)C1=CCN(S(=O)(=O)c2ccc(C)cc2)C1c1ccc(Cl)c(Cl)c1` (stereo not drawn) [FS065], the responders at 10 µM came out at 11%.

With `CCOC(=O)C1=CCN(S(=O)(=O)c2ccc(C)cc2)C1c1ccc(Br)cc1` (stereo not drawn) [FS066], the “Rescue at 10 uM (%)” value amounted to 11%. On to `CCOC(=O)C1=CCN(S(=O)(=O)c2ccc(C)cc2)C1c1cccc(Br)c1` (stereo not drawn) [FS067], for which the “Rescue at 10 uM (%)” value came out at 20%. In the case of `CCOC(=O)C1=CCN(S(=O)(=O)c2ccc(C)cc2)C1c1cccc2ccccc12` (stereo not drawn) [FS068], the “Rescue at 10 uM (%)” value is 0%, the “Rescue at 15 uM (%)” value was found to be 0% and the “Rescue at 20 uM (%)” value came to 0%. As to `CCOC(=O)C1=CCN(S(=O)(=O)c2ccc(C)cc2)C1c1ccc(C(C)C)cc1` (stereo not drawn) [FS070], the “Rescue at 10 uM (%)” value came out at 0%. Take `CCOC(=O)C1=CCN(S(=O)(=O)c2ccccc2)C1c1ccc(Cl)cc1` (stereo not drawn) [FS072]: the “Rescue at 10 uM (%)” value is recorded as 60%, the “Rescue at 15 uM (%)” value is recorded as 70% and the “Rescue at 20 uM (%)” value turned out to be 40%. Turning to `CCOC(=O)C1=CCN(S(=O)(=O)c2ccccc2C(=O)OC)C1c1ccc(Cl)cc1` (stereo not drawn) [FS073], the “Rescue at 10 uM (%)” value worked out at 40%.

As for `CCOC(=O)C1=CCN(S(=O)(=O)c2ccccc2[N+](=O)[O-])C1c1ccc(C)cc1` (stereo not drawn) [FS075], the “Rescue at 10 uM (%)” value is 0%. Take `CCOC(=O)C1=CCN(S(=O)(=O)c2ccccc2C(=O)OC)C1c1ccc(C)cc1` (stereo not drawn) [FS076]: the responders at 10 µM is 40%, the responders at 15 µM was 60% and the responders at 20 µM was found to be 10%. `CCOC(=O)C1=CCN(S(=O)(=O)c2ccccc2)C1c1ccc(C)cc1` (stereo not drawn) [FS077]: the “Rescue at 10 uM (%)” value is reported as 30%. For `CCOC(=O)C1=CCN(S(=O)(=O)c2ccc(Cl)cc2)C1c1ccc(Cl)cc1` (stereo not drawn) [FS085], the “Rescue at 10 uM (%)” value is on record as 89%, the “Rescue at 15 uM (%)” value turned out to be 80% and the “Rescue at 20 uM (%)” value was 80%. With `CCOC(=O)C1=CCN(S(=O)(=O)c2ccc(Cl)cc2)C1c1ccc(C)cc1` (stereo not drawn) [FS086], the “Rescue at 10 uM (%)” value is listed as 11%. With `CCOC(=O)C1=CCN(S(=O)(=O)c2ccc(Cl)cc2)C1c1ccc(Cl)c(Cl)c1` (stereo not drawn) [FS087], the responders at 10 µM was found to be 22%, the responders at 15 µM came out at 0% and the responders at 20 µM is 0%. With `CCOC(=O)C1=CCN(S(=O)(=O)c2ccc(Cl)cc2)C1c1cccc(Cl)c1` (stereo not drawn) [FS088], the responders at 10 µM came out at 0%.

As for `CCOC(=O)C1=CCN(S(=O)(=O)c2ccc(Cl)cc2)C1c1cccc(Br)c1` (stereo not drawn) [FS089], the responders at 10 µM worked out at 0%. Same read-out and setting: as for `CCOC(=O)C1=CCN(S(=O)(=O)c2ccc(Cl)cc2)C1c1cccc(F)c1` (stereo not drawn) [FS090], the figure is 40%; as for `CCOC(=O)C1=CCN(S(=O)(=O)c2ccc(Cl)cc2)C1c1cccc(C)c1` (stereo not drawn) [FS091], 0%. Regarding `CCOC(=O)C1=CCN(S(=O)(=O)c2ccc(Br)cc2)C1c1ccc(Cl)c(Cl)c1` (stereo not drawn) [FS092], the responders at 10 µM amounted to 0%, the responders at 15 µM came to 11% and the responders at 20 µM is 11%. Turning to `CCOC(=O)C1=CCN(S(=O)(=O)c2ccc(Br)cc2)C1c1cccc(Cl)c1` (stereo not drawn) [FS093], the responders at 10 µM is 0%.

The values above are taken from patent US12729181B2, “Compounds, compositions, and methods for modulating calcium ion homeostasis” (The Regents of the University of California, priority 2020, dated 2026).
